# Values quoted from earlier work, collected in US20160045505A1, “COMPOUNDS AND COMPOSITIONS FOR THE TREATMENT OF PARASITIC DISEASES” (NOVARTIS AG, priority 2013, published 2016).
# Settings: patients injected with Melarsoprol (Arsobal); cited from earlier work
smiles,measurement,value
Nc1nc(N)nc(Nc2ccc([As]3SCC(CO)S3)cc2)n1 (centres unmarked) [Melarsoprol],"patients who developed reactive encephalopathy (convulsions, progressive coma, or psychotic reactions)",3-10 % of patients
same,reactive encephalopathy cases that result in death,10-70 % of such cases
